In patent US20230172961A1 (priority 2020, published 2023):

Target: SARS-CoV-2 exonuclease complex (nsp14 and nsp10) (Severe acute respiratory syndrome coronavirus 2, UniProt P0DTD1)
Experiment: Exonuclease resistance of RNA terminated with nucleotide analogues, MALDI-TOF MS
Format: biochemical
Conditions: for relative resistance to excision by the exonuclease: analogue at the 3′ terminus of RNA, compared with other 3′ termini; for cleavage of extended RNA after 5 min exonuclease treatment / cleavage of extended RNA after 30 min exonuclease treatment: RNA extended by SARS-CoV-2 RdRp (FIGS. 48, 49)

Substance	relative resistance to excision by the exonuclease	relative resistance to excision by the exonuclease (listed as 2′-O-Me-CTP)	cleavage of extended RNA after 5 min exonuclease treatment	cleavage of extended RNA after 5 min exonuclease treatment (listed as SFV)	cleavage of extended RNA after 30 min exonuclease treatment	cleavage of extended RNA after 30 min exonuclease treatment (listed as SFV)
2′-O-methyl CMP	resistant to excision	much more full-length RNA remaining				
Sofosbuvir	more protected from cleavage		minimal appearance of cleavage products	some reduction in the height	significant amount of the intact Sofosbuvir-RNA remaining	still some SFV extended RNA remaining
UMP			substantial cleavage		completely disappears	
